Measured values published in ChEMBL document CHEMBL3885881, “DrugMatrix”.

Species on record: Rattus norvegicus
Experiment: DrugMatrix - Regimen: Daily Repeat
Type: toxicity, organism-based, Sprague-Dawley
Set-up: regimen Daily Repeat, gender Male, age 6-8 weeks
Conditions: in vivo, po, 0 mg/kg, route oral GAVAGE, dose level Control, vehicle .5 % CMC; for ABSOLUTE BASOPHIL / ABSOLUTE EOSINOPHIL / ABSOLUTE LYMPHOCYTE / ABSOLUTE MONOCYTE / ABSOLUTE SEGMENTED NEUTROPHIL / BASOPHIL / EOSINOPHIL / ERYTHROCYTE COUNT / HEMATOCRIT / HEMOGLOBIN / LEUKOCYTE COUNT / LYMPHOCYTE / MEAN CORPUSCULAR HEMOGLOBIN / MEAN CORPUSCULAR HEMOGLOBIN CONCENTRATION / MEAN CORPUSCULAR VOLUME / MONOCYTE / NEUTROPHIL / PLATELET COUNT: tissue Blood; for ALANINE AMINOTRANSFERASE / ALBUMIN / ALKALINE PHOSPHATASE / ASPARTATE AMINOTRANSFERASE / BLOOD UREA NITROGEN / CHLORIDE / CHOLESTEROL / CREATINE PHOSPHOKINASE / CREATININE / GLUCOSE / LACTATE DEHYDROGENASE / LIPASE / PHOSPHORUS / POTASSIUM / SODIUM / TOTAL BILIRUBIN / TOTAL PROTEIN / URIC ACID: tissue Plasma

O=c1cc(-c2ccccc2)oc2c1ccc1ccccc12 [ALPHA-NAPHTHOFLAVONE]
ABSOLUTE BASOPHIL (120 h, time 5 day): 92 cells/µL
ABSOLUTE EOSINOPHIL (120 h, time 5 day): 52 cells/µL
ABSOLUTE LYMPHOCYTE (120 h, time 5 day): 6560 cells/µL
ABSOLUTE MONOCYTE (120 h, time 5 day): 160 cells/µL
ABSOLUTE SEGMENTED NEUTROPHIL (120 h, time 5 day): 1130 cells/µL
BASOPHIL (120 h, time 5 day): 1.14%
EOSINOPHIL (120 h, time 5 day): 0.68%
ERYTHROCYTE COUNT (120 h, time 5 day): 7.51 x10E6/uL
HEMATOCRIT (120 h, time 5 day): 46.04%
HEMOGLOBIN (120 h, time 5 day): 15.62 G/DL
LEUKOCYTE COUNT (120 h, time 5 day): 8.03 x10E3/uL
LYMPHOCYTE (120 h, time 5 day): 81.54%
MEAN CORPUSCULAR HEMOGLOBIN (120 h, time 5 day): 20.84 pg
MEAN CORPUSCULAR HEMOGLOBIN CONCENTRATION (120 h, time 5 day): 33.94 G/DL
MEAN CORPUSCULAR VOLUME (120 h, time 5 day): 61.42 fL
MONOCYTE (120 h, time 5 day): 2%
NEUTROPHIL (120 h, time 5 day): 14.24%
PLATELET COUNT (120 h, time 5 day): 1427.2 x10E3/uL
ALANINE AMINOTRANSFERASE (120 h, time 5 day): 35.6 u/L
ALBUMIN (120 h, time 5 day): 3.64 G/DL
ALKALINE PHOSPHATASE (120 h, time 5 day): 233 u/L
ASPARTATE AMINOTRANSFERASE (120 h, time 5 day): 81 u/L
BLOOD UREA NITROGEN (120 h, time 5 day): 12 mg/dL
CHLORIDE (120 h, time 5 day): 109.4 MEQ/L
CHOLESTEROL (120 h, time 5 day): 47.6 mg/dL
CREATINE PHOSPHOKINASE (120 h, time 5 day): 183.2 u/L
CREATININE (120 h, time 5 day): 0.4 mg/dL
GLUCOSE (120 h, time 5 day): 134.6 mg/dL
LACTATE DEHYDROGENASE (120 h, time 5 day): 89.4 u/L
LIPASE (120 h, time 5 day): 17.2 u/L
PHOSPHORUS (120 h, time 5 day): 13.02 mg/dL
POTASSIUM (120 h, time 5 day): 7 MEQ/L
SODIUM (120 h, time 5 day): 149.6 MEQ/L
TOTAL BILIRUBIN (120 h, time 5 day): 0.18 mg/dL
TOTAL PROTEIN (120 h, time 5 day): 6.06 G/DL
URIC ACID (120 h, time 5 day): 1.04 mg/dL
ABSOLUTE BASOPHIL (2184 h, time 91 day): 130 cells/µL
ABSOLUTE EOSINOPHIL (2184 h, time 91 day): 70 cells/µL
ABSOLUTE LYMPHOCYTE (2184 h, time 91 day): 8670 cells/µL
ABSOLUTE MONOCYTE (2184 h, time 91 day): 160 cells/µL
ABSOLUTE SEGMENTED NEUTROPHIL (2184 h, time 91 day): 1530 cells/µL
BASOPHIL (2184 h, time 91 day): 1.13%
EOSINOPHIL (2184 h, time 91 day): 0.66%
ERYTHROCYTE COUNT (2184 h, time 91 day): 9.13 x10E6/uL
HEMATOCRIT (2184 h, time 91 day): 48.47%
HEMOGLOBIN (2184 h, time 91 day): 16.56 G/DL
LEUKOCYTE COUNT (2184 h, time 91 day): 10.5 x10E3/uL
LYMPHOCYTE (2184 h, time 91 day): 81.63%
MEAN CORPUSCULAR HEMOGLOBIN (2184 h, time 91 day): 18.16 pg
MEAN CORPUSCULAR HEMOGLOBIN CONCENTRATION (2184 h, time 91 day): 34.14 G/DL
MEAN CORPUSCULAR VOLUME (2184 h, time 91 day): 53.14 fL
MONOCYTE (2184 h, time 91 day): 1.53%
NEUTROPHIL (2184 h, time 91 day): 14.71%
PLATELET COUNT (2184 h, time 91 day): 1280.22 x10E3/uL
ALANINE AMINOTRANSFERASE (2184 h, time 91 day): 28.89 u/L
ALBUMIN (2184 h, time 91 day): 3.69 G/DL
ALKALINE PHOSPHATASE (2184 h, time 91 day): 101.11 u/L
ASPARTATE AMINOTRANSFERASE (2184 h, time 91 day): 70.67 u/L
BLOOD UREA NITROGEN (2184 h, time 91 day): 16.78 mg/dL
CHLORIDE (2184 h, time 91 day): 104.56 MEQ/L
CHOLESTEROL (2184 h, time 91 day): 58.78 mg/dL
CREATINE PHOSPHOKINASE (2184 h, time 91 day): 91.22 u/L
CREATININE (2184 h, time 91 day): 0.61 mg/dL
GLUCOSE (2184 h, time 91 day): 142.33 mg/dL
LACTATE DEHYDROGENASE (2184 h, time 91 day): 81.67 u/L
LIPASE (2184 h, time 91 day): 13 u/L
PHOSPHORUS (2184 h, time 91 day): 7.54 mg/dL
POTASSIUM (2184 h, time 91 day): 6.27 MEQ/L
SODIUM (2184 h, time 91 day): 149.89 MEQ/L
TOTAL BILIRUBIN (2184 h, time 91 day): 0.19 mg/dL
TOTAL PROTEIN (2184 h, time 91 day): 7.12 G/DL
URIC ACID (2184 h, time 91 day): 0.97 mg/dL
ABSOLUTE BASOPHIL ([…], time 28 day): 150 cells/µL
ABSOLUTE EOSINOPHIL ([…], time 28 day): 54 cells/µL
ABSOLUTE LYMPHOCYTE ([…], time 28 day): 8890 cells/µL
ABSOLUTE MONOCYTE ([…], time 28 day): 190 cells/µL
ABSOLUTE SEGMENTED NEUTROPHIL ([…], time 28 day): 2250 cells/µL
BASOPHIL ([…], time 28 day): 1.26%
EOSINOPHIL ([…], time 28 day): 0.46%
ERYTHROCYTE COUNT ([…], time 28 day): 8.34 x10E6/uL
HEMATOCRIT ([…], time 28 day): 48.66%
HEMOGLOBIN ([…], time 28 day): 16.04 G/DL
LEUKOCYTE COUNT ([…], time 28 day): 11.58 x10E3/uL
LYMPHOCYTE ([…], time 28 day): 76.74%
MEAN CORPUSCULAR HEMOGLOBIN ([…], time 28 day): 19.2 pg
MEAN CORPUSCULAR HEMOGLOBIN CONCENTRATION ([…], time 28 day): 32.92 G/DL
MEAN CORPUSCULAR VOLUME ([…], time 28 day): 58.32 fL
MONOCYTE ([…], time 28 day): 1.76%
NEUTROPHIL ([…], time 28 day): 19.44%
PLATELET COUNT ([…], time 28 day): 1282.6 x10E3/uL
ALANINE AMINOTRANSFERASE ([…], time 28 day): 27 u/L
ALBUMIN ([…], time 28 day): 3.68 G/DL
ALKALINE PHOSPHATASE ([…], time 28 day): 146.2 u/L
ASPARTATE AMINOTRANSFERASE ([…], time 28 day): 66.6 u/L
BLOOD UREA NITROGEN ([…], time 28 day): 12.4 mg/dL
CHLORIDE ([…], time 28 day): 104.6 MEQ/L
CHOLESTEROL ([…], time 28 day): 59.6 mg/dL
CREATINE PHOSPHOKINASE ([…], time 28 day): 121.8 u/L
CREATININE ([…], time 28 day): 0.6 mg/dL
GLUCOSE ([…], time 28 day): 143 mg/dL
LACTATE DEHYDROGENASE ([…], time 28 day): 87.8 u/L
LIPASE ([…], time 28 day): 17.4 u/L
PHOSPHORUS ([…], time 28 day): 8.68 mg/dL
POTASSIUM ([…], time 28 day): 6.02 MEQ/L
SODIUM ([…], time 28 day): 152.8 MEQ/L
TOTAL BILIRUBIN ([…], time 28 day): 0.26 mg/dL
TOTAL PROTEIN ([…], time 28 day): 6.92 G/DL
URIC ACID ([…], time 28 day): 0.52 mg/dL
